Assay [1] has as its target Protein kinase C gamma type (Homo sapiens, UniProt P05129). As to the kind of experiment: Inhibition of human Protein kinase C gamma.
Assay [2] deals with Protein kinase C delta type (Homo sapiens, UniProt Q05655). As to the kind of experiment: Inhibition of human Protein kinase C delta.
Assay [3] has as its target T1, Protein kinase C epsilon type (Homo sapiens, UniProt Q02156).
T1 sequence (Q02156 whole entry): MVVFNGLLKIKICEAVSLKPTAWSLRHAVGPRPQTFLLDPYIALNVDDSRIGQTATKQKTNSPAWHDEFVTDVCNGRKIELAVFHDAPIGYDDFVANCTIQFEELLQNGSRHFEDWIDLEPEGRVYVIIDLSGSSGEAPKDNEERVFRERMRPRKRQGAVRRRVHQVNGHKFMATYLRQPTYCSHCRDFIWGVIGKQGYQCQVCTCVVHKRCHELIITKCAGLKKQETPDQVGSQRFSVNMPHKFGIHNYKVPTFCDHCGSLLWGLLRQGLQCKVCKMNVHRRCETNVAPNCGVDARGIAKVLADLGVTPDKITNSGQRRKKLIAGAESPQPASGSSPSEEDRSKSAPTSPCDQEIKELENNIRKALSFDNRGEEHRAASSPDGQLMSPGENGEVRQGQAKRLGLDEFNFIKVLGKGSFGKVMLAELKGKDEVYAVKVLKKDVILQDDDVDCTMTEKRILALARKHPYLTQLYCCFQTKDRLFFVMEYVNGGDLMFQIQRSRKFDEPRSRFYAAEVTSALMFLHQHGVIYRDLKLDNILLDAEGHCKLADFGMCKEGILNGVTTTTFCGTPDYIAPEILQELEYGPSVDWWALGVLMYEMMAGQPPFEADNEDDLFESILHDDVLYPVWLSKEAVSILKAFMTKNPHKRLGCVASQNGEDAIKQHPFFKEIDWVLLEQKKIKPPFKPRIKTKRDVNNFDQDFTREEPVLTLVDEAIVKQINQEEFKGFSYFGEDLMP
As to the kind of experiment: Inhibition of human Protein kinase C epsilon.

Assay [4] has as its target Protein kinase C eta type (Homo sapiens, UniProt P24723). As to the kind of experiment: Inhibition of human protein kinase C eta.
In assay [5] the target is Protein kinase C alpha type (Homo sapiens, UniProt P17252). As to the kind of experiment: Inhibition of human Protein kinase C alpha.
For assay [6], the target named is T2, Protein kinase C beta type (Homo sapiens, UniProt P05771). As to the kind of experiment: Inhibition of human Protein kinase C beta 1.
Assay [7] has as its target T2, Protein kinase C beta type. As to the kind of experiment: Inhibition of human Protein kinase C beta 2.
Assay [8] has as its target T3, Protein kinase C zeta type (Homo sapiens, UniProt Q05513).
T3 sequence (Q05513 whole entry): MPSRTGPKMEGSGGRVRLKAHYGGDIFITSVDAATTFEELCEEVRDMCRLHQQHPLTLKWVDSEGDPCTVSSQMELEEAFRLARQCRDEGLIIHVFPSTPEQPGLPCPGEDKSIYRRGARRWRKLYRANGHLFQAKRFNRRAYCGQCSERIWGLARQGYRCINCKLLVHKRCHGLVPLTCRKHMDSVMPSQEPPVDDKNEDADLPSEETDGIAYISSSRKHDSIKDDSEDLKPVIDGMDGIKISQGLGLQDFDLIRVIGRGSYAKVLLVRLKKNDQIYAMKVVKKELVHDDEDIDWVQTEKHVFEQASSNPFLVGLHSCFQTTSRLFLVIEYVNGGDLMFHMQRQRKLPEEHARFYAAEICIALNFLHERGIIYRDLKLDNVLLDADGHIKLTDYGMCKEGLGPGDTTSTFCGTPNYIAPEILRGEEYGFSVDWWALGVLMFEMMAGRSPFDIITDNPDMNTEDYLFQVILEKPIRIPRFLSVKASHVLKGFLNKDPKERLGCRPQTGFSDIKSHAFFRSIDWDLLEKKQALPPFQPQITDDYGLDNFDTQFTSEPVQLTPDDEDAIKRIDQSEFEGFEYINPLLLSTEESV
As to the kind of experiment: Inhibition of Protein kinase C zeta.

T2 sequence (P05771 whole entry): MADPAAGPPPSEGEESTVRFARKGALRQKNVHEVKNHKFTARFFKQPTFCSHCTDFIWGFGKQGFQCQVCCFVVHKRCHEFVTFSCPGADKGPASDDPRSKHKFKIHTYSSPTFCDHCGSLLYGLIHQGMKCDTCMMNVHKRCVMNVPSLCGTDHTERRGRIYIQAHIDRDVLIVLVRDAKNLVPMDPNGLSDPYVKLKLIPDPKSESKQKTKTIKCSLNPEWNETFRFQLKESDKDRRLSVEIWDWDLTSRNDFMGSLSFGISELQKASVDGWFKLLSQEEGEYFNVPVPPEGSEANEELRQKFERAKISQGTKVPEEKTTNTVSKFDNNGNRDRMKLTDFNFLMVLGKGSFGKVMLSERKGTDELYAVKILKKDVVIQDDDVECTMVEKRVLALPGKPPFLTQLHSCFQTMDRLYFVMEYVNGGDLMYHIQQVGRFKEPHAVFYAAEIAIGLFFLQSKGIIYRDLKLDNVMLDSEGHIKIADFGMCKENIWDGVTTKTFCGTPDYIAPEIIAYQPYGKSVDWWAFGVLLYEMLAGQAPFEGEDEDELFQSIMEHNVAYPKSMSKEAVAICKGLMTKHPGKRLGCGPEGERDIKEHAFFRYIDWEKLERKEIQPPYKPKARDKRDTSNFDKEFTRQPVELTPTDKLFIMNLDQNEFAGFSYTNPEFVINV
Chain of Protein kinase C eta type (P24723 whole entry): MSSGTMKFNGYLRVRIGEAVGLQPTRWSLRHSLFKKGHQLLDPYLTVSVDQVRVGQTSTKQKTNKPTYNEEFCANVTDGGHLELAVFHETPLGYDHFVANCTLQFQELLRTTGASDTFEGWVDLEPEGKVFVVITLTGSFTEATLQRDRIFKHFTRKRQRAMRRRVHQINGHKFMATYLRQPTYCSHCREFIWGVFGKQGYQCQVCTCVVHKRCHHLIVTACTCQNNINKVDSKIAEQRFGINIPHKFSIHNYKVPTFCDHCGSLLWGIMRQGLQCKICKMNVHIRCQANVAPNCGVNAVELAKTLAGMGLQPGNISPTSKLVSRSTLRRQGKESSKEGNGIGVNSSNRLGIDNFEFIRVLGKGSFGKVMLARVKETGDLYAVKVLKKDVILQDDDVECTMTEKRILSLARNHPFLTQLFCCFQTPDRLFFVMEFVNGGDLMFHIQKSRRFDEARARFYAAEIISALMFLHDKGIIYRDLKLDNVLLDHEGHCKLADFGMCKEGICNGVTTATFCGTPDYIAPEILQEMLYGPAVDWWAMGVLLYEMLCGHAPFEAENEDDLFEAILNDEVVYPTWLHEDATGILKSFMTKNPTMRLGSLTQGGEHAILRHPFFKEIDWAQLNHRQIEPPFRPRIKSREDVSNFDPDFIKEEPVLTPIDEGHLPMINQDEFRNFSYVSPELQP
Chain of Protein kinase C delta type (Q05655 whole entry): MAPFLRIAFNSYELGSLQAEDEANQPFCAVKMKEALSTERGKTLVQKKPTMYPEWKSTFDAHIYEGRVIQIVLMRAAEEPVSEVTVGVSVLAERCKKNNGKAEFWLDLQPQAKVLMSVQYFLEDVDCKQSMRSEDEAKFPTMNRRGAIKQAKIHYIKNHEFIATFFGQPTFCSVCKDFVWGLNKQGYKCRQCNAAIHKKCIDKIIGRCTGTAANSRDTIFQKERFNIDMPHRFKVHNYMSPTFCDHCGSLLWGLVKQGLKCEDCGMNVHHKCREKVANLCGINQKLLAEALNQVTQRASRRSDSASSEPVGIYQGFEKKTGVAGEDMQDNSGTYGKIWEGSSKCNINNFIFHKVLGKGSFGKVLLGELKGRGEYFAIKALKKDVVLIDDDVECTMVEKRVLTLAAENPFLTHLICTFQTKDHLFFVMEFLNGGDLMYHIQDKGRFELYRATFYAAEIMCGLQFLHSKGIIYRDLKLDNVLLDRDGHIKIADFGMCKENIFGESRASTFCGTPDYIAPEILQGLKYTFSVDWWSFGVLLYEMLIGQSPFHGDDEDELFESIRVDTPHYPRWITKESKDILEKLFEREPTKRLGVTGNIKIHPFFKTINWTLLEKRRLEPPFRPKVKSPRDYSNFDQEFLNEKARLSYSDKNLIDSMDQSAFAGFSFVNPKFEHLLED

In general, IC50 refers to the concentration needed to halve the response being measured. A higher IC50 goes with lower potency. Regarding `O=C(N[C@H]1CSCCC[C@H]1OC(=O)c1cc(O)c(C(=O)c2c(O)cccc2C(=O)O)c(O)c1)c1ccc(O)cc1`, the IC50 was found to be 1 µM in assay [1]; 0.09 µM in assay [2]; 5.9 µM in assay [3]; 0.1 µM in assay [4]; 3.3 µM in assay [5]; 3.8 µM in assay [6]. The compound also had a concentration for half-maximal inhibition (IC50) in assay [7] of 2.4 µM.
With `O=C(N[C@H]1CNCCC[C@H]1OC(=O)c1cc(O)c(C(=O)c2c(O)cccc2C(=O)O)c(O)c1)c1ccc(O)cc1` (racemic), the IC50 in assay [1] was 0.034 µM; in assay [2] it was 0.032 µM; in assay [8], 3.5 µM; in assay [4] it was 0.022 µM; in assay [5], 0.074 µM; in assay [6], 0.032 µM. Besides, in assay [7], the IC50 is 0.044 µM.
As for `O=C(N[C@H]1CS(=O)(=O)CCC[C@H]1OC(=O)c1cc(O)c(C(=O)c2c(O)cccc2C(=O)O)c(O)c1)c1ccc(O)cc1`, the 50% inhibitory concentration (IC50) in assay [1] is 4.3 µM; in assay [2], 4 µM; in assay [3] it was 45 µM; in assay [8], more than 150 µM; in assay [4], 0.83 µM; in assay [5], 9.6 µM. Moreover, the IC50 in assay [6] was 5.2 µM; in assay [7], 3.6 µM.
Turning to `O=C(N[C@H]1CCCCC[C@H]1OC(=O)c1cc(O)c(C(=O)c2c(O)cccc2C(=O)O)c(O)c1)c1ccc(O)cc1`, the IC50 in assay [1] is 0.06 µM; in assay [2], 0.09 µM; in assay [3], 0.28 µM; in assay [8], more than 150 µM; in assay [4] it was 0.06 µM; in assay [5], 0.27 µM. Moreover, the IC50 in assay [6] is 0.22 µM; in assay [7], 0.43 µM.
Consider `O=C(N[C@H]1COCCC[C@H]1OC(=O)c1cc(O)c(C(=O)c2c(O)cccc2C(=O)O)c(O)c1)c1ccc(O)cc1`, for which the IC50 was 1 µM in assay [1]; 0.09 µM in assay [2]; 16 µM in assay [3]; more than 150 µM in assay [8]; 0.01 µM in assay [4]; 6.7 µM in assay [5]. For the same compound, the IC50 in assay [6] amounted to 2.5 µM; in assay [7], 3.3 µM.

Source of the values: ChEMBL document CHEMBL1128826, “Heteroatom effect in the PKC inhibitory activities of perhydroazepine analogs of balanol” (Bioorg Med Chem Lett, 1995).
